Experimental data from US4795639A, “Potentiating formulations” (priority 1971, dated 1989).

Experiments:
[1] = system: HMPPS and `synthetase`; experiment: control tubes with source of both HMPPS and `synthetase`, labelled pAB, chromatographic analysis; type: biochemical, E. coli; conditions: 1 × 10^-5 M
Experimental: Control tubes 10 to 12 include a source of both HMPPS and synthetase, unlabelled ATP, 0.1M MgCl2.6H2 O and labelled pAB.
Two control test tubes were prepared, each containing ATP (10 μl, 0.1M), MgCl2.6H2 O (10 μl, 0.1M), dithiothreitol (20 μl, 0.1M) tris buffer (20 μl, 0.4M, pH 8.3), pAB-C^14 (10 μl, 0.4 mM), and 20 μl of a solution containing HMPPS and `synthetase` of known activity. The test compound was added to the second of these two tubes up to a final concentration of 10^-5 M, and both tubes were made up with distilled water to 200 μl.
All seven tubes were then incubated for 30 minutes at 37° C., chilled on ice and then these, together with control tubes 10 to 12 from part (a), were chromatographically analysed as follows:
100 μl of the contents of each of the tubes was spotted onto Whatman No. 3 MM chromatography paper (2×20 cm) at the `origin`, the run descending in a Sorenson buffer of potassium and sodium phosphates (0.1M, pH 7.0) for 10 to 15 cm.

[2] = system: E. acervulina; experiment: coccidiosis screening test in chicks, E. acervulina; type: in vivo
Experimental: "Screening tests" were performed to establish the effectiveness of the compounds of formula (I) both alone and in combination with a competitor and or an inhibitor and to determine the most useful levels of relative concentrations of each component in combatting or suppressing coccidiosis.
Groups of Ranger cockerels, housed in small, heated cages with wire floors situated in enironmentally controlled isolation rooms, were infected orally with sporulated oocysts of the Eimeria spp such as E. tenella or E. acervulina. The appropriate test compound(s), (DMHP, sulphaquinoxaline (SQX) or diaveridine (DV) or any combination of these) were incorporated in a small quantity of specially formulated laboratory ration deficient in Vitamin K (`L.D.4 mash`), as a 1/10 pre-mix, which was then mixed into the diet on a horizontal roller drum mixed and administered to groups of chicks one day prior to infection, leaving some groups as untreated controls. […]
The amount of damage, marked by lesions in the caecal walls was investigated in those chicks that died during the course of the experiment, and in those sacrificed on the final day of administration, and compared with the untreated controls as a basis for the determination of therapeutic activity. In addition the mortality rate and the percentage weight gains in the various groups were assessed. […]

[3] = system: Staphylococcus aureus; experiment: M.I.C. in Wellcome Nutrient Agar, 18 hours at 37° C.; type: cell-based
[4] = system: Pseudomonas aeruginosa; experiment: zone inhibition, pteridine in agar, drugs in well; type: cell-based; conditions: for complete zone inhibition, SMX (300) / zone including partial inhibition, SMX (300): SMX 300 μg/ml; for zone including partial inhibition, TMP (30): TMP 30 μg/ml; for complete zone inhibition, TMP + SMX (5) (100) / zone including partial inhibition, TMP + SMX (5) (100): TMP 5 + SMX 100 μg/ml
Experimental: (§1) The pteridine was included in a soya peptone medium of low thymidine content (Wellcotest Sensitivity Test Agar) contained in a Petri-dish and the other component(s) added to the well resulting from the removal of a small plug from the medium. The surface of the medium was inoculated with the test organism and then incubated.

[5] = system: Staphylococcus aureus; experiment: zone inhibition, pteridine in agar, drugs in well; type: cell-based; conditions: for complete zone inhibition, SMX (300) / zone including partial inhibition, SMX (300): SMX 300 μg/ml; for complete zone inhibition, TMP + SMX (5) (100) / zone including partial inhibition, TMP + SMX (5) (100): TMP 5 + SMX 100 μg/ml
Experimental: as §1

[6] = system: Staphylococcus aureus CN 491; experiment: testing discs on standard nutrient medium; type: cell-based; conditions: Staphylococcus aureus, CN491; read-out: Size of zone in cm (×6 magnification)
[7] = system: Proteus vulgaris CN 329; experiment: testing discs on standard nutrient medium; type: cell-based; conditions: Proteus vulgaris, CN329; read-out: Size of zone in cm (×6 magnification)
[8] = pteridine 3 μg/ml, TMP 30 μg/ml
[9] = pteridine 10 μg/ml, TMP 30 μg/ml

Compound: CC1(C)Nc2nc(N)nc(O)c2N=C1CO [DMHP, 2-amino-4-hydroxy-6-hydroxymethyl-7,7-dimethyl-7,8-dihydropteridine]
- % Inhibn. ([1]; Table 1 control tube 12): 79%
- % Inhibn. ([1]; Table 2 control tube 7): 83%
- Total Oocysts × 10^6 Days 5 & 6 ([2]; Expt. 8, 5,000,000 oocysts, SQX/DV/DMHP p.p.m: b497-499 -/-/30, 10, 5, b500 10/10/-, b502 10/10/30, b504 10/10/10, b506 10/10/5): 0.0 × 10^6
- activity alone against moderate infection with E. acervulina ([2]; concentrations of 250 and 90 p.p.m): active alone
- Sulphamethoxazole increase in Activity ([3]; Conc. of DMHP 3.1 μg/ml): 1 ×
- Trimethoprim in the Presence of × 20 sulphamethoxazol increase in Activity ([3]; Conc. of DMHP 3.1 μg/ml): 10 ×
- Trimethoprim increase in Activity ([3]; Conc. of DMHP 3.1 μg/ml): 10 ×
- Sulphamethoxazole increase in Activity ([3]; Conc. of DMHP 6.2 μg/ml): 10 ×
- Trimethoprim in the Presence of × 20 sulphamethoxazol increase in Activity ([3]; Conc. of DMHP 6.2 μg/ml): 30 ×
- Trimethoprim increase in Activity ([3]; Conc. of DMHP 6.2 μg/ml): 30 ×
- Sulphamethoxazole increase in Activity ([3]; Conc. of DMHP 25 μg/ml): 100 ×
- Trimethoprim in the Presence of × 20 sulphamethoxazol increase in Activity ([3]; Conc. of DMHP 25 μg/ml): > 300 ×
- Trimethoprim increase in Activity ([3]; Conc. of DMHP 25 μg/ml): 300 ×
- complete zone inhibition, SMX (300) ([4]; pteridine 3 μg/ml): 9.0 centimeters
- zone including partial inhibition, SMX (300) ([4]; pteridine 3 μg/ml): 14.0 centimeters
- zone including partial inhibition, TMP (30) ([4]; pteridine 3 μg/ml): 5.0 centimeters
- complete zone inhibition, TMP + SMX (5) (100) ([4]; pteridine 3 μg/ml): 8.0 centimeters
- zone including partial inhibition, TMP + SMX (5) (100) ([4]; pteridine 3 μg/ml): 11.0 centimeters
- complete zone inhibition, SMX (300) ([4]; pteridine 10 μg/ml): 15.0 centimeters
- zone including partial inhibition, SMX (300) ([4]; pteridine 10 μg/ml): 20.0 centimeters
- zone including partial inhibition, TMP (30) ([4]; pteridine 10 μg/ml): 6.0 centimeters
- complete zone inhibition, TMP + SMX (5) (100) ([4]; pteridine 10 μg/ml): 12.0 centimeters
- zone including partial inhibition, TMP + SMX (5) (100) ([4]; pteridine 10 μg/ml): 15.0 centimeters
- complete zone inhibition, SMX (300) ([5]; pteridine 3 μg/ml): 4.0 centimeters
- zone including partial inhibition, SMX (300) ([5]; pteridine 3 μg/ml): 10.0 centimeters
- complete zone inhibition, TMP (30) [5, 8]: 8.0 centimeters
- zone including partial inhibition, TMP (30) [5, 8]: 10.0 centimeters
- complete zone inhibition, TMP + SMX (5) (100) ([5]; pteridine 3 μg/ml): 10.0 centimeters
- zone including partial inhibition, TMP + SMX (5) (100) ([5]; pteridine 3 μg/ml): 12.0 centimeters
- complete zone inhibition, SMX (300) ([5]; pteridine 10 μg/ml): 5.0 centimeters
- zone including partial inhibition, SMX (300) ([5]; pteridine 10 μg/ml): 12.0 centimeters
- complete zone inhibition, TMP (30) [5, 9]: 8.5 centimeters
- zone including partial inhibition, TMP (30) [5, 9]: 10.5 centimeters
- complete zone inhibition, TMP + SMX (5) (100) ([5]; pteridine 10 μg/ml): 10.5 centimeters
- zone including partial inhibition, TMP + SMX (5) (100) ([5]; pteridine 10 μg/ml): 12.0 centimeters
- complete zone inhibition, TMP (30) ([5]; pteridine 30 μg/ml in medium, TMP 30 μg/ml in well, about 6× magnification): 11.0 centimeters
- complete zone inhibition, SMX (300) ([5]; pteridine 30 μg/ml): 9.0 centimeters
- zone including partial inhibition, SMX (300) ([5]; pteridine 30 μg/ml): 14.5 centimeters
- zone including partial inhibition, TMP (30) ([5]; pteridine 30 μg/ml, TMP 30 μg/ml): 14.0 centimeters
- complete zone inhibition, TMP + SMX (5) (100) ([5]; pteridine 30 μg/ml): 11.5 centimeters
- zone including partial inhibition, TMP + SMX (5) (100) ([5]; pteridine 30 μg/ml): 14.5 centimeters
- zone of inhibition at 100 µg/disc [6]: 0 mm
- zone of inhibition at 100 µg/disc [7]: 0 mm
